Our source for the MIC values is ChEMBL document CHEMBL1275589, “Molecular epidemiology, sequence types, and plasmid analyses of KPC-producing Klebsiella pneumoniae strains in Israel” (2010).

≈ marks a conversion by molar mass, not a printed value.

The subject of test [1] is Klebsiella pneumoniae. The experiment in a line: Antimicrobial activity against carbapenem-resistant KPC-2 producing Klebsiella pneumoniae 523 ST 340 expressing beta-lactamase TEM-1, SHV-11 and OXA-2 by Etest. It is filed as functional.
Test [2] concerns Klebsiella pneumoniae. The experiment in a line: Antimicrobial activity against carbapenem-resistant KPC-2 producing Klebsiella pneumoniae 523 transformant by Etest. The class given is functional.
The subject of test [3] is Klebsiella pneumoniae. The experiment in a line: Antimicrobial activity against carbapenem-resistant KPC-2 producing Klebsiella pneumoniae 588 ST 340 expressing beta-lactamase TEM-1 and SHV-11 by Etest. It is filed as functional.
Test [4] deals with Klebsiella pneumoniae. In words: Antimicrobial activity against carbapenem-resistant KPC-2 producing Klebsiella pneumoniae 588 transformant by Etest. It is filed as functional.
For test [5], the system named is Klebsiella pneumoniae. The experiment in a line: Antimicrobial activity against carbapenem-resistant KPC-2 producing Klebsiella pneumoniae 365 transformant by Etest. The class given is functional.
Test [6] relates to Klebsiella pneumoniae. The experiment in a line: Antimicrobial activity against carbapenem-resistant KPC-2 producing Klebsiella pneumoniae 531 ST 376 expressing beta-lactamase SHV-1 by Etest. The class given is functional.
The subject of test [7] is Klebsiella pneumoniae. In words: Antimicrobial activity against carbapenem-resistant KPC-2 producing Klebsiella pneumoniae 531 transformant by Etest. It is filed as functional.
The test system of test [8] is Klebsiella pneumoniae. In words: Antimicrobial activity against carbapenem-resistant KPC-2 producing Klebsiella pneumoniae 525 ST 376 expressing beta-lactamase SHV-1 by Etest. The class given is functional.
For test [9], the system named is Klebsiella pneumoniae. In words: Antimicrobial activity against carbapenem-resistant KPC-2 producing Klebsiella pneumoniae 525 transformant by Etest. It is filed as functional.
For test [10], the system named is Klebsiella pneumoniae. The experiment in a line: Antimicrobial activity against carbapenem-resistant KPC-2 producing Klebsiella pneumoniae 526 ST 376 expressing beta-lactamase SHV-1 by Etest. It is filed as functional.
Test [11] relates to Klebsiella pneumoniae. In words: Antimicrobial activity against carbapenem-resistant KPC-2 producing Klebsiella pneumoniae 526 transformant by Etest. The class given is functional.
Test [12] deals with Klebsiella pneumoniae. In words: Antimicrobial activity against KPC-3 producing Klebsiella pneumoniae 549 ST 327 expressing beta-lactamase TEM-1 and CTX-M-2 by Etest. The class given is functional.
Test [13] relates to Klebsiella pneumoniae. In words: Antimicrobial activity against KPC-3 producing Klebsiella pneumoniae 549 transformant by Etest. It is filed as functional.
Test [14] concerns Klebsiella pneumoniae. In words: Antimicrobial activity against KPC-3 producing Klebsiella pneumoniae 557 transformant by Etest. It is filed as functional.
The subject of the next test is Escherichia coli. The experiment in a line: Antimicrobial activity against Escherichia coli Genehogs by Etest. The class given is functional.
For test [15], the system named is Klebsiella pneumoniae. In words: Antimicrobial activity against carbapenem-resistant KPC-2 producing Klebsiella pneumoniae 475 ST 277 expressing beta-lactamase SHV-27, CTX-M-15 and OXA-4 by Etest. It is filed as functional.
Test [16] has as its system Klebsiella pneumoniae. The experiment in a line: Antimicrobial activity against carbapenem-resistant KPC-2 producing Klebsiella pneumoniae 475 transformant by Etest. The class given is functional.
Test [17] relates to Klebsiella pneumoniae. In words: Antimicrobial activity against carbapenem-resistant KPC-2 producing Klebsiella pneumoniae 469 ST 277 expressing beta-lactamase SHV-27, CTX-M-15 and OXA-4 by Etest. The class given is functional.
The subject of test [18] is Klebsiella pneumoniae. The experiment in a line: Antimicrobial activity against carbapenem-resistant KPC-2 producing Klebsiella pneumoniae 469 transformant by Etest. The class given is functional.
Test [19] concerns Klebsiella pneumoniae. The experiment in a line: Antimicrobial activity against KPC-3 producing Klebsiella pneumoniae 557 ST 258 expressing beta-lactamase TEM-1 by Etest.
Test [20] concerns Klebsiella pneumoniae. In words: Antimicrobial activity against carbapenem-resistant KPC-2 producing Klebsiella pneumoniae 365 ST 376 expressing beta-lactamase SHV-1, CTX-M-15 and OXA-4 by Etest.

As usually defined, the MIC is the smallest concentration in the dilution series that meets the test's criterion for growth inhibition. A low value points to inhibition by little substance. Take `CN(C)c1cc(NC(=O)CNC(C)(C)C)c(O)c2c1C[C@H]1C[C@H]3[C@H](N(C)C)C(O)=C(C(N)=O)C(=O)[C@@]3(O)C(O)=C1C2=O` [TIGECYCLINE]: the MIC in the test on Klebsiella pneumoniae [1] came out at 0.5 µg/mL (≈ 0.854 µM); in the test on Klebsiella pneumoniae [2], 0.125 µg/mL (≈ 0.213 µM); with Klebsiella pneumoniae [3], 2 µg/mL (≈ 3.41 µM); with Klebsiella pneumoniae [4], 0.125 µg/mL (≈ 0.213 µM); against Klebsiella pneumoniae [5], 0.125 µg/mL (≈ 0.213 µM); with Klebsiella pneumoniae [6] it was 1.5 µg/mL (≈ 2.56 µM). Moreover, the MIC with Klebsiella pneumoniae [7] was determined as 0.125 µg/mL (≈ 0.213 µM); in the test on Klebsiella pneumoniae [8] it was 1 µg/mL (≈ 1.71 µM); in the test on Klebsiella pneumoniae [9], 0.125 µg/mL (≈ 0.213 µM); against Klebsiella pneumoniae [10] it was 1.5 µg/mL (≈ 2.56 µM); in the test with Klebsiella pneumoniae [11], 0.125 µg/mL (≈ 0.213 µM); in the test with Klebsiella pneumoniae [12], 0.75 µg/mL (≈ 1.28 µM). Moreover, the MIC against Klebsiella pneumoniae [13] is 0.19 µg/mL (≈ 0.324 µM); with Klebsiella pneumoniae [14] it was 0.125 µg/mL (≈ 0.213 µM); in the test with Escherichia coli it was 0.094 µg/mL (≈ 0.161 µM); with Klebsiella pneumoniae [15], 4 µg/mL (≈ 6.83 µM); with Klebsiella pneumoniae [16], 0.125 µg/mL (≈ 0.213 µM); with Klebsiella pneumoniae [17], 1 µg/mL (≈ 1.71 µM). The results for the MIC with Klebsiella pneumoniae [18], against Klebsiella pneumoniae [19] and in the test with Klebsiella pneumoniae [20] were 0.125 µg/mL (≈ 0.213 µM), 4 µg/mL (≈ 6.83 µM) and 1 µg/mL (≈ 1.71 µM), respectively.

As to COLISTIN, the MIC with Klebsiella pneumoniae [1] worked out at 0.125 µg/mL; in the test on Klebsiella pneumoniae [2], 0.047 µg/mL; with Klebsiella pneumoniae [3], 0.19 µg/mL; against Klebsiella pneumoniae [4], 0.047 µg/mL; against Klebsiella pneumoniae [5], 0.032 µg/mL; with Klebsiella pneumoniae [6], 0.125 µg/mL. The MIC in the test on Klebsiella pneumoniae [7] turned out to be 0.032 µg/mL; against Klebsiella pneumoniae [8], 0.125 µg/mL; against Klebsiella pneumoniae [9], 0.032 µg/mL; with Klebsiella pneumoniae [10], 0.125 µg/mL; in the test on Klebsiella pneumoniae [11], 0.032 µg/mL; with Klebsiella pneumoniae [12], 0.125 µg/mL. For the same compound, the MIC in the test with Klebsiella pneumoniae [13] came to 0.032 µg/mL; against Klebsiella pneumoniae [14], 0.032 µg/mL; in the test with Escherichia coli it was 0.125 µg/mL; in the test on Klebsiella pneumoniae [15], 0.19 µg/mL; in the test with Klebsiella pneumoniae [16] it was 0.032 µg/mL; in the test with Klebsiella pneumoniae [17] it was 0.125 µg/mL. This compound yielded an MIC against Klebsiella pneumoniae [18] of 0.032 µg/mL.
